Measurements taken from patent publication US9593145B2, “Secondary structure stabilized NMDA receptor modulators and uses thereof” (Northwestern University, priority 2010, dated 2017).
“Also recorded” adds a separate entry of the source. Read-outs that look alike come from different tables or passages of the source. Blank lines part the entries; values can stand above or below the molecule they belong to. Residues, ends and D or L forms follow the SMILES beside them.

Tests used:
[1] = target: T1, NMDA receptor (Rattus norvegicus, UniProt P35439); assay: NMDA receptor gated single neuron conductance (INMDA) in hippocampal CA1 pyramidal neurons; type: cell-based; conditions: for relative potency / magnitude as enhancer of INMDA among the tested compounds: low concentrations (50-100 nM)
T1 construct: in hippocampal CAI pyramidal neurons; from tissue; host or cells: in vitro hippocampal slices, CA1 pyramidal neurons
Excerpt: (§1) The effects of the three compounds were examined on 1) NMDA receptor gated single neuron conductance (INMDA) in hippocampal CAI pyramidal neurons and 2) the magnitude of long term potentiation (LTP) and long term depression (LTD) at Schaffer collateral CA1 synapses, in in vitro hippocampal slices.

[2] = test system: Schaffer collateral CA1 synapses; assay: long term depression (LTD) at Schaffer collateral CA1 synapses, in vitro hippocampal slices; type: cell-based; conditions: 1 μM; low frequency stimulus
Excerpt: as §1

[3] = test system: Schaffer collateral CA1 synapses; assay: long term potentiation (LTP) at Schaffer collateral CA1 synapses, in vitro hippocampal slices; type: cell-based; conditions: for effect on magnitude of LTP: high frequency stimulus
Excerpt: as §1

[4] = test system: Schaffer collateral CA1 synapses; conditions: cited from earlier work
[5] = test system: Schaffer collateral CA1 synapses; conditions: cited from earlier work; remark: listed apart in the source
[6] = target: T1, NMDA receptor; conditions: cited from earlier work
[7] = test system: Glutamate, Kainate; assay: binding assay, Glutamate, Kainate; set-up: species or system rat; conditions: 10 μM
Excerpt: (§2) Table B depicts the results of binding assays against various targets with AK51: […]

[8] = test system: Glutamate, NMDA, Phencyclidine; assay: binding assay, Glutamate, NMDA, Phencyclidine; set-up: species or system rat; conditions: 10 μM
Excerpt: as §2

[9] = test system: Glutamate, Non-Selective; assay: binding assay, Glutamate, Non-Selective; set-up: species or system rat; conditions: 10 μM
Excerpt: as §2

[10] = test system: Glutamate, AMPA; assay: binding assay, Glutamate, AMPA; set-up: species or system rat; conditions: 10 μM
Excerpt: as §2

[11] = test system: Glutamate, NMDA, Polyamine; assay: binding assay, Glutamate, NMDA, Polyamine; set-up: species or system rat; conditions: 10 μM
Excerpt: as §2

[12] = test system: Glycine, Strychnine-Sensitive; assay: binding assay, Glycine, Strychnine-Sensitive; set-up: species or system rat; conditions: 10 μM
Excerpt: as §2

[13] = target: Potassium Channel hERG (Homo sapiens, UniProt Q12809); assay: binding assay, Potassium Channel hERG
Excerpt: as §2

[14] = test system: Glutamate, NMDA, Agonism; assay: binding assay, Glutamate, NMDA, Agonism; set-up: species or system rat; conditions: 10 μM
Excerpt: as §2

[15] = alternating T-maze learning task; type: in vivo, rat; conditions: 60 min before testing
Experimental: Male 3 month old Fisher 344 X Brown Norway F1 cross rats (FBNF1) were used for this study. The t-maze was constructed with arms (45 cm long×10 cm wide×10 cm high) made of black Plexiglas enclosing the maze. Two plastic bottle caps, lined with wire mesh, were secured to the end of each goal arm in which the food reward (Cheerios, 100 mg/piece) was placed. Before the start of training, animals were gradually deprived of food to approximately 85% of their free feeding weight. On three successive days before the start of training, animals were habituated to the t-maze with food located throughout the maze. […] On the subsequent testing day, animals were given injections of AK51(0.3, 1, 3, 10, 30 mg/kg p.o.), or DMSO vehicle (1 mg/ml; Sigma, Saint Louis Mo.) in a blind manner via gastric gavage (4″, 16-ga; Braintree Scientific, Braintree Mass.) 60 min prior to the start of testing (n=8-9 per group. On the first trial of testing, both arms were baited with food and for the subsequent 20 trials only alternating choices (opposite of the animal's previous choice) were rewarded (˜30 sec inter-trial interval). The number of trials to criterion (5 consecutive correct choices) was calculated for each animal. Data was analyzed by ANOVA followed by Fisher PLSD post hoc tests comparing individual drug doses to vehicle (α=0.05). […]

Potassium Channel hERG, sequence (Q12809 whole entry): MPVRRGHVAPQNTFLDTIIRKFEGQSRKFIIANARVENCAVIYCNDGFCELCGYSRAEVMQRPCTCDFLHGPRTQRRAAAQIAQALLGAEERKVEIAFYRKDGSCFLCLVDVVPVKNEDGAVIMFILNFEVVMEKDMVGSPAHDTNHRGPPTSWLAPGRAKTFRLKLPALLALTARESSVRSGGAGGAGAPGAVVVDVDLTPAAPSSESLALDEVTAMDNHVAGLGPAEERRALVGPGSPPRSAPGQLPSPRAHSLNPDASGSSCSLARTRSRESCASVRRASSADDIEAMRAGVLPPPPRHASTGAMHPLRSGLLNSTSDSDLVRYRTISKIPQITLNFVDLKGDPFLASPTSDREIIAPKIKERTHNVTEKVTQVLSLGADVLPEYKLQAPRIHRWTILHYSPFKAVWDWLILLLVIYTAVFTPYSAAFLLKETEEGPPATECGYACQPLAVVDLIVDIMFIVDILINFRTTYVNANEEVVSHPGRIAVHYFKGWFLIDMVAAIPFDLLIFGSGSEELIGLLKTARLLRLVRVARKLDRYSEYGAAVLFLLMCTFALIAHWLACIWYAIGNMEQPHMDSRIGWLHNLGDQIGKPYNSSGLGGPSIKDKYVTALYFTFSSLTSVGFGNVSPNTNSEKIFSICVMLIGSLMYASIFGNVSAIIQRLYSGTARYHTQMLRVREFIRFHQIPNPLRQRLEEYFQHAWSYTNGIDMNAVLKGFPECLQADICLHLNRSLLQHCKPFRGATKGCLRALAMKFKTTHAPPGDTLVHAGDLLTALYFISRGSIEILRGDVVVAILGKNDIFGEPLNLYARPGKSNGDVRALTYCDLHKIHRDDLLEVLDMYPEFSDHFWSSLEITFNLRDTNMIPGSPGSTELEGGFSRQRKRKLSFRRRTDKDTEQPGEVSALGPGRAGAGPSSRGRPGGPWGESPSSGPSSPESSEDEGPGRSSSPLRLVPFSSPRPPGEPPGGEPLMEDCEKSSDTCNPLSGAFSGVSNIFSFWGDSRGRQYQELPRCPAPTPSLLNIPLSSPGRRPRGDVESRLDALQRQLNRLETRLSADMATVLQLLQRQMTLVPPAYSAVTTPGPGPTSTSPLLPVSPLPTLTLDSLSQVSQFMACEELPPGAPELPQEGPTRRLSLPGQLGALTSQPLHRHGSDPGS

effect on single shock evoked INMDA (NMDA e.p.s.c.s) ([1]; 100 nM): only a mild enhancement
effect on single shock evoked INMDA (NMDA e.p.s.c.s) ([1]; 100 nM, listed as AK52): enhancement
effect on single shock evoked INMDA (NMDA e.p.s.c.s) ([1]; 1 μM): significant reduction
effect on single shock evoked INMDA (NMDA e.p.s.c.s) ([1]; 1 μM, listed as AK52): marked reduction
relative potency / magnitude as enhancer of INMDA among the tested compounds [1]: weakest enhancer
SMILES: CC(O)C(NC(=O)OCc1ccccc1)C(=O)N1CC2(CCCN2C(=O)OCc2ccccc2)C1=O (stereo not drawn) [AK-52]
effect on LTD [2]: without altering; also recorded: did not affect
effect on magnitude of LTP ([3]; 100 nM): enhancement of LTP similar in magnitude to compound B and AK-51
effect on magnitude of LTP ([3]; 1 μM): slight, but significant, reduction
effect on induction / magnitude of LTP ([3]; concentration not given): selectively enhances

SMILES: C[C@@H](O)[C@H](N)C(=O)N1CCC[C@H]1C(=O)N1CCC[C@H]1C(=O)N[C@H](C(N)=O)[C@@H](C)O [GLYX-13] (H-TPPT-NH2)
effect on LTD ([4]; 100 μM): no longer affected
effect on LTD ([4]; low concentration 1-10 μM): reducing
effect on LTP ([5]; 100 μM): reducing
effect on LTP ([5]; low concentration 1-10 μM): enhancement
effect on burst INMDA ([6]; 100 μM): reducing
effect on burst-activated INMDA ([6]; low concentration 1-10 μM): enhancement
effect on single pulse evoked INMDA ([6]; low concentration 1-10 μM): reducing

% Inhibition [7]: −13%
% Inhibition [8]: −5%
% Inhibition [9]: −10%
% Inhibition [10]: −8%
effect on single shock evoked INMDA (NMDA e.p.s.c.s) ([1]; 1 μM): enhancement
effect on single shock evoked INMDA (NMDA e.p.s.c.s) ([1]; 1 μM, listed as NRX-10,051): enhanced
effect on NMDA current (NMDA receptor-gated current, whole-cell recording) ([1]; FIG. 4, 100 nM and 1 μM, 20 min bath application): enhances
% Inhibition [11]: −14%
% Inhibition [12]: 4%
% Inhibition [14]: 27%
SMILES: O=C1NCC12CCCN2 (stereo not drawn) [AK51]
effect on single shock evoked INMDA (NMDA e.p.s.c.s) ([1]; 100 nM, listed as NRX-10,051): enhanced; also recorded: marked enhancement
relative potency / magnitude as enhancer of INMDA among the tested compounds [1]: less potency than compound B; also recorded: smaller in magnitude
inhibition at 10 µM [13]: 3%
effect on LTD [2]: not altering
effect on magnitude of LTP ([3]; 100 nM): potentiate
effect on magnitude of LTP ([3]; 1 μM): potentiate
effect on magnitude of LTP ([3]; 1 μM, listed as NRX-10,051): doubled
effect on LTP ([3]; FIG. 4, 100 nM and 1 μM bath application): enhances
learning behavior in the T-maze test ([15]; 1.0 mg/kg by mouth, P<0.001): statistically significant enhancement
learning behavior in the T-maze test ([15]; 3.0 mg/kg by mouth, P<0.01): statistically significant enhancement
